Drawing on patent publication US9663508B2, “Biaryl acyl-sulfonamide compounds as sodium channel inhibitors” (AMGEN INC., priority 2013, dated 2017), this text covers IC50 for ten molecules.

One data set addresses human Nav1.7 (Homo sapiens (Human), UniProt Q15858). Nature of the data set: Nav 1.7 in vitro PatchXpress (PX) assay. The data set is classed as cell-based.
A further data set concerns the target human Nav 1.5 (Homo sapiens (Human), UniProt Q14524). Nature of the data set: Nav 1.5 IonWorks Quattro (IWQ) in vitro assay. The data set is classed as cell-based. As to conditions: read-out: NAV 1.5 IWQ IC50.

Each structure is given as a SMILES string.

human Nav 1.5, sequence (Q14524 whole entry): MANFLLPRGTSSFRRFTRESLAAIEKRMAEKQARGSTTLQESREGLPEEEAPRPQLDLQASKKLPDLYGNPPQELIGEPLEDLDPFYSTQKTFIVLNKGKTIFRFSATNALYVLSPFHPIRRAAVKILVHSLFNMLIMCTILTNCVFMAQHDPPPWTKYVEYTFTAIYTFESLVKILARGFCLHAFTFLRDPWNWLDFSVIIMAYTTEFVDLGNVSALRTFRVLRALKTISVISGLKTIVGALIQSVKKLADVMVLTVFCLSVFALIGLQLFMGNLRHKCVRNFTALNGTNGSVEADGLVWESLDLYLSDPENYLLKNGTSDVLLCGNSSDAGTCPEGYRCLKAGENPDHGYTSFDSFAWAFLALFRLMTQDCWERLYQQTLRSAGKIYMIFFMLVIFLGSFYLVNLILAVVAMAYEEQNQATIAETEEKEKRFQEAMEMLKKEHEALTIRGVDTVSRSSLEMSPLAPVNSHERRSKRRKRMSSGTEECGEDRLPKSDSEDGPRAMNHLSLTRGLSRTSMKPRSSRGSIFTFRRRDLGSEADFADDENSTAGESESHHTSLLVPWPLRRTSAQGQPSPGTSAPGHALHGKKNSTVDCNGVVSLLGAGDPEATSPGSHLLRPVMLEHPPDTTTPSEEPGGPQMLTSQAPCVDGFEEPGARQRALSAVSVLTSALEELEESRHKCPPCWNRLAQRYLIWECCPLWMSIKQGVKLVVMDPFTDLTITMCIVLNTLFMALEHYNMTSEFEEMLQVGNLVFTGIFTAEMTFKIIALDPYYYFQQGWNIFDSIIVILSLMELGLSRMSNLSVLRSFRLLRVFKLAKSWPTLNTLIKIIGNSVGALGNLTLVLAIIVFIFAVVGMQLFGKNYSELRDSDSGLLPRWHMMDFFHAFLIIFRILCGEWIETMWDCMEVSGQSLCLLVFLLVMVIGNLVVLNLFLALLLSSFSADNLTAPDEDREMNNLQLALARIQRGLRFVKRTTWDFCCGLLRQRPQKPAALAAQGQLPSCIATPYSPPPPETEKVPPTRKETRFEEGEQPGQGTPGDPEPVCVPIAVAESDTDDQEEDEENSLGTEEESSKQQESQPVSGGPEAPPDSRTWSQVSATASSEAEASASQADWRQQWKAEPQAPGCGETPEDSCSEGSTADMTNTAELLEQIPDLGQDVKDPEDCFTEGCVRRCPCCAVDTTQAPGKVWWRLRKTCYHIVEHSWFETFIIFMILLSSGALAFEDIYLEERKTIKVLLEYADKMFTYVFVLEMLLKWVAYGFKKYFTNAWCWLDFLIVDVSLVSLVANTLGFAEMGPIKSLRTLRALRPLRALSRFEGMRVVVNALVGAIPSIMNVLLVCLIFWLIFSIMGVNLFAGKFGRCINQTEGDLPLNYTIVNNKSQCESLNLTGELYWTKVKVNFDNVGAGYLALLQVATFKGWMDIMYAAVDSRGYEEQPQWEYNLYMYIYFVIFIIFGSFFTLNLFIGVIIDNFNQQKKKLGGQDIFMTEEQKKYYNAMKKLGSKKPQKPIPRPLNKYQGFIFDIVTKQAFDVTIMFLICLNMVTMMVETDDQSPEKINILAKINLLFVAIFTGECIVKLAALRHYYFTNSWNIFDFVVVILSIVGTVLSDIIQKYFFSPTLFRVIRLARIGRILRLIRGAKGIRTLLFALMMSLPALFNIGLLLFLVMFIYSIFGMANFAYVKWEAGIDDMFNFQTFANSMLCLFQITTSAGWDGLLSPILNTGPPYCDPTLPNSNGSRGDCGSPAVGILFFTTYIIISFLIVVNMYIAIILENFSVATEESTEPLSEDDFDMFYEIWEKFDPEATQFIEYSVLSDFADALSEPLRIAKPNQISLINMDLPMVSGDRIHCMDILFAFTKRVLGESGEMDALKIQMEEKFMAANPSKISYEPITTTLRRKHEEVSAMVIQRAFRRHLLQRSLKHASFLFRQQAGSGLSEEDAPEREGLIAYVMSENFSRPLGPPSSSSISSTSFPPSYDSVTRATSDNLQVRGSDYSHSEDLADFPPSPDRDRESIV
human Nav1.7, sequence (Q15858 whole entry): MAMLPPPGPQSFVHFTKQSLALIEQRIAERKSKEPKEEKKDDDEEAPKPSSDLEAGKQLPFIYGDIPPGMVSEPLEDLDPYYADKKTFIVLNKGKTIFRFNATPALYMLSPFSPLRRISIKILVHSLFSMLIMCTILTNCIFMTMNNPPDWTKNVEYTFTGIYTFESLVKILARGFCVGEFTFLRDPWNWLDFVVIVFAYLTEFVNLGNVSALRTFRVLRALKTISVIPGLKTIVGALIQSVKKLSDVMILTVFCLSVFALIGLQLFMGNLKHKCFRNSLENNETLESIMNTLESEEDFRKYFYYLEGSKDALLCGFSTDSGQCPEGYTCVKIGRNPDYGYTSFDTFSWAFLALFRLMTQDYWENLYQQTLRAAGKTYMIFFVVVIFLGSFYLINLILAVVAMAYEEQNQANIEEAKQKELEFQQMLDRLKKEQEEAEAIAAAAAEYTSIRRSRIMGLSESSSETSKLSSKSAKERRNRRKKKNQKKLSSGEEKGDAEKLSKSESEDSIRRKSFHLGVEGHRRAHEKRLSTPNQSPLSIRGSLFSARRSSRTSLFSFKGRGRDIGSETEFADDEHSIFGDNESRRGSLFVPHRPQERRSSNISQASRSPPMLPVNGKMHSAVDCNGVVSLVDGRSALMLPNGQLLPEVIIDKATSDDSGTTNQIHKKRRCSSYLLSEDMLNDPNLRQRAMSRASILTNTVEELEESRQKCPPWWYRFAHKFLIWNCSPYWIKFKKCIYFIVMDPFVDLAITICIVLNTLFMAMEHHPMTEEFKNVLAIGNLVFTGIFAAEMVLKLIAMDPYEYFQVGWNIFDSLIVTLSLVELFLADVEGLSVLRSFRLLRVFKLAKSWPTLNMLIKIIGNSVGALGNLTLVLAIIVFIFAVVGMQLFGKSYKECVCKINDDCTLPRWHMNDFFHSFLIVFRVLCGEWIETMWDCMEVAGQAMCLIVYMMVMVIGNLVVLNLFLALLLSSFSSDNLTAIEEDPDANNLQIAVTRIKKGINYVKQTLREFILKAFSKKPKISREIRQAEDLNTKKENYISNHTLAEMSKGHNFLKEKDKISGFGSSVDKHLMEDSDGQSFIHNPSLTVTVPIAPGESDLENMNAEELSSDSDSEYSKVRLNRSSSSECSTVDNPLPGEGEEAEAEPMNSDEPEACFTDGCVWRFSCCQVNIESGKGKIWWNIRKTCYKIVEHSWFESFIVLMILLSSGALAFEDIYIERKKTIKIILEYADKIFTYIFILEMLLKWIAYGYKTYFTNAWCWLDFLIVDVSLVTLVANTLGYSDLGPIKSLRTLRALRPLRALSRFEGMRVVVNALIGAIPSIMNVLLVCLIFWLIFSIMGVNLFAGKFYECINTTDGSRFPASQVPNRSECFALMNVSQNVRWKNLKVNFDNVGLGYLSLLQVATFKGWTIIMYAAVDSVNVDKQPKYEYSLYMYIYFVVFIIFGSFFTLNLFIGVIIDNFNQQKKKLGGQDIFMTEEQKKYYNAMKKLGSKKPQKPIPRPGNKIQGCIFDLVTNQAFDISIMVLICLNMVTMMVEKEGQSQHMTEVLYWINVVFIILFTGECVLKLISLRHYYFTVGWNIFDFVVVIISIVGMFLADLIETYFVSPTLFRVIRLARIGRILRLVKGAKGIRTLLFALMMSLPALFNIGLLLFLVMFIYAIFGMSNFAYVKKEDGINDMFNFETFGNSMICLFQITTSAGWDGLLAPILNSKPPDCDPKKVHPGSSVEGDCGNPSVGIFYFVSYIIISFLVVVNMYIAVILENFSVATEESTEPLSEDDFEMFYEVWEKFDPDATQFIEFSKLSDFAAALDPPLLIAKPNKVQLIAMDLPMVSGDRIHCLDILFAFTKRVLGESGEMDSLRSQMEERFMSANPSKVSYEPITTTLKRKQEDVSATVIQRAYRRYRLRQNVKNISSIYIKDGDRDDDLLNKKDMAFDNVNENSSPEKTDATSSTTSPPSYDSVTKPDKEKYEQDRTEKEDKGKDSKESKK
Protocol for human Nav 1.5: Nav 1.7 or Nav 1.5 Ion Works Quattro (IWQ) In Vitro Assay
HEK 293 Cells stably transfected with either human Nay 1.7 or human Nay 1.5 were recorded in population patch-clamp mode with the IonWorks® Quattro automated electrophysiology system in accordance with the manufacturer's specifications (Molecular Devices, LLC, Sunnyvale, Calif.). Sodium channel currents were measured in response to a train of depolarizations that induced successively greater inactivation.
Cells were held at −110 mV for three seconds (Nav 1.7) or half a second (Nav 1.5) from a holding voltage of −15 mV, then put through a series of 26 pulses of 150 msec duration to −20 mV at a frequency of 5 Hz. Cells were then left unclamped for a period of 3 to 8 minutes while a single concentration of test compound was added. Cells were then reclamped and put through the same voltage protocol. Current at the end of the 26th pulse to −20 mV was subtracted from the peak current evoked by the 26th pulse to −20 mV to correct for leak current. Percent block was calculated for each concentration in duplicate, and IC50 curves were fitted to percent block as a function of concentration.

Broadly, the IC50 is the concentration that inhibits the measured activity by half. Regarding `Cc1ccc(Oc2ncc(-c3cc(F)c(C(=O)NS(C)(=O)=O)cc3Cl)cc2Cl)cc1F` [Example 591, 5-chloro-4-(5-chloro-6-(3-fluoro-4-methylphenoxy)-3-pyridinyl)-2-fluoro-N-(methylsulfonyl)benzamide], the IC50 at human Nav1.7 was 85.6 nM; at human Nav 1.5, greater than 3000 nM.

On to `CS(=O)(=O)NC(=O)c1cc(Cl)c(-c2cnc(Oc3c(Cl)cccc3Cl)c(Cl)c2)cc1F` [Example 592, 5-chloro-4-(5-chloro-6-(2,6-dichlorophenoxy)-3-pyridinyl)-2-fluoro-N-(methylsulfonyl)benzamide], for which the IC50 on human Nav1.7 is 66.1 nM; on human Nav 1.5, greater than 3000 nM.

As for `CC[C@H](Cc1ccccc1)Oc1ncc(-c2cc(F)c(C(=O)NS(C)(=O)=O)cc2Cl)cc1Cl` [Example 593, 4-(6-(((1R)-1-benzylpropyl)oxy)-5-chloro-3-pyridinyl)-5-chloro-2-fluoro-N-(methylsulfonyl)benzamide, 4-(6-(((1S)-1-benzylpropyl)oxy)-5-chloro-3-pyridinyl)-5-chloro-2-fluoro-N-(methylsulfonyl)benzamide], the figures for the IC50 at human Nav1.7 and at human Nav 1.5 were 97.4 nM and greater than 3000 nM, respectively.

`CC(C)[C@@H](Oc1ncc(-c2cc(F)c(C(=O)NS(C)(=O)=O)cc2Cl)cc1Cl)c1ccccc1` [Example 594, 5-chloro-4-(5-chloro-6-(((1R)-2-methyl-1-phenylpropyl)oxy)-3-pyridinyl)-2-fluoro-N-(methylsulfonyl)benzamide, 5-chloro-4-(5-chloro-6-(((1S)-2-methyl-1-phenylpropyl)oxy)-3-pyridinyl)-2-fluoro-N-(methylsulfonyl)benzamide]: the results for the IC50 against human Nav1.7 and on human Nav 1.5 were 48.8 nM and greater than 3000 nM, respectively.

Turning to `CS(=O)(=O)NC(=O)c1cc(Cl)c(-c2cnc(Oc3cc(F)ccc3Cl)c(Cl)c2)cc1F` [Example 595, 5-chloro-4-(5-chloro-6-(2-chloro-5-fluorophenoxy)-3-pyridinyl)-2-fluoro-N-(methylsulfonyl)benzamide], the IC50 is 81.4 nM against human Nav1.7 and greater than 3000 nM on human Nav 1.5.

For `CC[C@@H](Oc1ncc(-c2cc(F)c(C(=O)NS(C)(=O)=O)cc2Cl)cc1Cl)c1ccc(F)cc1` [Example 596, 5-chloro-4-(5-chloro-6-(((1R)-1-(4-fluorophenyl)propyl)oxy)-3-pyridinyl)-2-fluoro-N-(methylsulfonyl)benzamide, 5-chloro-4-(5-chloro-6-(((1S)-1-(4-fluorophenyl)propyl)oxy)-3-pyridinyl)-2-fluoro-N-(methylsulfonyl)benzamide], the results for the IC50 at human Nav1.7 and at human Nav 1.5 were 87.9 nM and greater than 3000 nM, respectively.

For `CS(=O)(=O)NC(=O)c1cc(Cl)c(-c2cnc(Oc3cc(F)ccc3F)c(Cl)c2)cc1F` [Example 597, 5-chloro-4-(5-chloro-6-(2,5-difluorophenoxy)-3-pyridinyl)-2-fluoro-N-(methylsulfonyl)benzamide], the figures for the IC50 against human Nav1.7 and at human Nav 1.5 were 69.8 nM and 5390 nM, respectively.

For `CS(=O)(=O)NC(=O)c1cc(Cl)c(-c2cnc(Oc3cc(F)cc(F)c3Cl)c(Cl)c2)cc1F` [Example 599, 5-chloro-4-(5-chloro-6-(2-chloro-3,5-difluorophenoxy)-3-pyridinyl)-2-fluoro-N-(methylsulfonyl)benzamide], the IC50 was 62.7 nM against human Nav1.7 and greater than 3000 nM at human Nav 1.5.

Consider `Cc1cc(C(=O)NS(C)(=O)=O)c(F)cc1-c1cnc(Oc2cc(F)ccc2F)c(Cl)c1` [Example 605, 4-(5-chloro-6-(2,5-difluorophenoxy)-3-pyridinyl)-2-fluoro-5-methyl-N-(methylsulfonyl)benzamide], for which the IC50 is 45.5 nM against human Nav1.7 and greater than 3000 nM on human Nav 1.5.

`Cc1cc(C(=O)NS(C)(=O)=O)c(F)cc1-c1cnc(Oc2cc(F)c(Br)cc2Cl)c(Cl)c1` [Example 606, 4-(6-(4-bromo-2-chloro-5-fluorophenoxy)-5-chloro-3-pyridinyl)-2-fluoro-5-methyl-N-(methylsulfonyl)benzamide]: the IC50 against human Nav1.7 was 71.7 nM; at human Nav 1.5, greater than 3000 nM.
